Measurements reported in patent US20260200925A1, “SMALL MOLECULE INHIBITORS OF KRAS MUTATED PROTEINS” (MERCK SHARP & DOHME LLC, priority 2021, published 2026).

Assays:
[1] = biological target: Recombinant KRAS-G12V (SEQ ID NO: 3) (Homo sapiens, UniProt P01116, G12V); assay: SOS-catalyzed guanine nucleotide exchange (GNE) assay, KRAS-G12V
Method: (§1) Specifically, the SOS-catalyzed nucleotide exchange assay utilizes a preformed time-resolved fluorescence resonance energy transfer (TR-FRET) complex containing a specific biotinylated RAS protein (KRAS-G12C/V/D, HRAS, NRAS; described above) with BODIPY-GDP, and Terbium-streptavidin. Test compounds are preincubated with this complex for 60 minutes.
(§2) To assemble the preformed TR-FRET complexes, each biotinylated RAS protein is diluted to 2 μM in an EDTA Buffer (20 mM HEPES, 50 mM sodium chloride, 10 mM EDTA, and 0.01% Tween) and incubated at room temperature for one hour. This mixture is then further diluted to 90 nM in an Assay Buffer (20 mM HEPES, 150 mM sodium chloride, 10 mM magnesium chloride, and 0.005% Tween) containing 15 nM of Terbium-Streptavidin (Invitrogen, catalog #PV3577) and 900 nM of BODIPY-GDP (Invitrogen, catalog #G22360) and incubated at room temperature for six hours. It should be noted that this preformed TR-FRET complex for each of the RAS proteins was made ahead of time, aliquoted and stored at −80° C. until the day of the experiment.
(§3) Once titrations are made, 10 nL of the diluted compounds is acoustically dispensed into a 384-well assay plate (Corning, catalog #3820) using an Echo 550 (Labcyte). Each well of the assay plate subsequently receives 3 μL of a specific 3× RAS preformed TR-FRET complex and 3 μL of Assay Buffer and is incubated at room temperature for 60 minutes (preincubation time). […] The final reaction in each well of 9 μL consists of 3 mM GTP, and the specific RAS and SOS proteins in the following concentrations: KRAS-G12C/SOS=3 nM/40 nM, KRAS-G12D/SOS=1 nM/40 nM, KRAS-G12V/SOS=1.25 nM/160 nM, HRAS/SOS=1.25 nM/40 nM, and NRAS/SOS=1.25 nM/40 nM.
(§4) The TR-FRET signal is measured on an Envision (PerkinElmer) plate reader: Excitation filter=340 nm; emission 1=495 nm; emission 2=520 nm; dichroic mirror=D400/D505; delay time=100 ms. The signal of each well is determined as the ratio of the emission at 520 nm to that at 495 nm. […] The apparent effect as a function of compound concentration is fit to a four-parameter logistic equation to calculate IC50 values using Spotfire software.

[2] = biological target: Recombinant KRAS-G12D (SEQ ID NO: 2) (Homo sapiens, UniProt P01116, G12D); assay: SOS-catalyzed guanine nucleotide exchange (GNE) assay, KRAS-G12D
Method: as §1, §2, §3, §4

[3] = system: AsPC-1 cells containing homozygous KRAS-G12D activating mutation (p-ERK); details: Homo sapiens, ASPC1, 2 h, read-out: KRAS G12D ASPC-1 IC50 (nM)
Method: Procedure for Cellular Phospho-ERK Assay, G12D
AsPC-1 cells (ATCC® CRL-1682™), containing homozygous KRAS-G12D activating mutation, were cultured in T150 flask in growth medium (RPMI medium 1640-GlutaMAX™—I (ThermoFisher Scientific 61870) containing 10% fetal bovine serum (ThermoFisher Scientific 10091148)). The cells were harvested in growth medium after TrypLE (ThermoFisher scientific 12604021) digestion and were seeded in a 384-well collagen coated cell culture plate (Corning 356702) at a density of 15,000 cells/well, and incubated at 37° C., 5% CO2 overnight. […] RPMI medium 1640-GlutaMAX™—I was added to the intermediate plate and the contents of the intermediate plate were then transferred to the 384-well collagen coated cell culture plate, which was incubated at 37° C., 5% CO2 for 2 hours. After removal of medium from the collagen coated cell culture plate, cells were lysed in lysis buffer from Alpha SureFire® Ultra™ Multiplex p-ERK and total ERK assay kit (PerkinElmer MPSU-PTERK) containing Halt™ Protease and Phosphatase inhibitor cocktail (ThermoFisher Scientific 78446) at room temperature with constant shaking at 300 rpm for 30 minutes. The cell lysates were then transferred to an OptiPlate-384 plate (PerkinElmer 6005620), and the phosphorylation of ERK (p-ERK) and total ERK levels were detected by Alpha SureFire® Ultra™ Multiplex p-ERK kit and total ERK assay kit (PerkinElmer MPSU-PTERK) following the manufacturer's protocol. Assay plates were read on a EnVision Multimode Plate Reader (PerkinElmer), and the ratio of p-ERK vs. total ERK in each well was used as the final readout. Dose response curves were analyzed using a 4-parameter logistic model to calculate IC50 values using Spotfire software.

G13D = G13D (Homo sapiens, UniProt P01116, G13D); assay: Guanine nucleotide exchange (GNE) assay, G13D; type: biochemical
Method: as §4

[4] = system: NCI-H358 cells containing homozygous KRAS-G12C activating mutation (p-ERK); details: Homo sapiens, NCI-H358, 2 h, read-out: G12C H358 IC50 (nM)
Method: Procedure for Cellular Phospho-ERK Assay, G12C
NCI-H358 cells (ATCC® CRL-5807™), containing homozygous KRAS-G12C activating mutation, were cultured in T150 flask in growth medium (RPMI medium 1640-GlutaMAX™—I (ThermoFisher Scientific 61870) containing 10% fetal bovine serum (ThermoFisher Scientific 10091148)). The cells were harvested in growth medium after TrypLE (ThermoFisher scientific 12604021) digestion and were seeded in a 384-well collagen coated cell culture plate (Corning 356702) at a density of 15,000 cells/well, and incubated at 37° C., 5% CO2 overnight. […] RPMI medium 1640-GlutaMAX™—I was added to the intermediate plate and the contents of the intermediate plate were then transferred to the 384-well collagen coated cell culture plate, which was incubated at 37° C., 5% CO2 for 2 hours. After removal of medium from the collagen coated cell culture plate, cells were lysed in lysis buffer from Alpha SureFire® Ultra™ Multiplex p-ERK and total ERK assay kit (PerkinElmer MPSU-PTERK) containing Halt™ Protease and Phosphatase inhibitor cocktail (ThermoFisher Scientific 78446) at room temperature with constant shaking at 300 rpm for 30 minutes. The cell lysates were then transferred to an OptiPlate-384 plate (PerkinElmer 6005620), and the phosphorylation of ERK (p-ERK) and total ERK levels were detected by Alpha SureFire® Ultra™ Multiplex p-ERK kit and total ERK assay kit (PerkinElmer MPSU-PTERK) following the manufacturer's protocol. Assay plates were read on an EnVision Multimode Plate Reader (PerkinElmer), and the ratio of p-ERK vs. total ERK in each well was used as the final readout. Dose response curves were analyzed using a 4-parameter logistic model to calculate IC50 values using Spotfire software.
HRAS (SEQ ID NO: 4) = HRAS (SEQ ID NO: 4) (Homo sapiens, UniProt P01112); assay: SOS-catalyzed guanine nucleotide exchange (GNE) assay, HRAS
Method: as §1, §2, §3, §4
NRAS (SEQ ID NO: 5) = NRAS (SEQ ID NO: 5) (Homo sapiens, UniProt P01111); assay: SOS-catalyzed guanine nucleotide exchange (GNE) assay, NRAS
Chain of NRAS (SEQ ID NO: 5) (P01111 with tags, fused parts or gaps): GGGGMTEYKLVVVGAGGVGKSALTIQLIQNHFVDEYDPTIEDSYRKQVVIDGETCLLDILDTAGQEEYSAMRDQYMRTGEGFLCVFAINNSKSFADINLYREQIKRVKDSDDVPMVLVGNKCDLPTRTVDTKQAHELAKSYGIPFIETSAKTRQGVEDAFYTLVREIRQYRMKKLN
Method: as §1, §2, §3, §4

Chain of HRAS (SEQ ID NO: 4) (P01112 with tags, fused parts or gaps): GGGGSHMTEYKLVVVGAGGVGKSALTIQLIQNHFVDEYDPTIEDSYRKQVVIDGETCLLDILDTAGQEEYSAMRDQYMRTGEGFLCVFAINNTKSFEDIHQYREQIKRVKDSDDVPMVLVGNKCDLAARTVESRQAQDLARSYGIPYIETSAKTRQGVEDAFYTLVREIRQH
Chain of Recombinant KRAS-G12V (SEQ ID NO: 3) (P01116 with tags, fused parts or gaps isoform P01116-2 G12V): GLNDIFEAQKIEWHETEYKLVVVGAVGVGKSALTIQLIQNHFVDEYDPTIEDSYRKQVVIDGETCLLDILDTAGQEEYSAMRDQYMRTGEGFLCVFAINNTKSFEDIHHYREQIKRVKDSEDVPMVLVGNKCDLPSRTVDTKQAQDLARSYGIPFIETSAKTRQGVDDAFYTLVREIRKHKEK
Chain of Recombinant KRAS-G12D (SEQ ID NO: 2) (P01116 with tags, fused parts or gaps isoform P01116-2 G12D): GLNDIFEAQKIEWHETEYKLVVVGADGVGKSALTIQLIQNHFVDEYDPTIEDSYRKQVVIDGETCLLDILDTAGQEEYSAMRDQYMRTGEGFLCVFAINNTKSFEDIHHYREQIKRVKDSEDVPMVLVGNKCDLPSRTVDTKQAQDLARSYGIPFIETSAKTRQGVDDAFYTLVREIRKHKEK
Chain of G13D (P01116 1-188 isoform P01116-2 G13D): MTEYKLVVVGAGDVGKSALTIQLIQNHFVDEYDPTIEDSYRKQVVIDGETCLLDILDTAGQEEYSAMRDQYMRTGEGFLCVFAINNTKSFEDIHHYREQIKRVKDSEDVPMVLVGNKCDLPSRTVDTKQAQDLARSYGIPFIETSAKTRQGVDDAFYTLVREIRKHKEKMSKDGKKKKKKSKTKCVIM

Row | Structure (SMILES) | IC50 [1] | IC50 [2] | IC50 [3] | IC50 (G13D) | IC50 [4] | IC50 (HRAS (SEQ ID NO: 4)) | IC50 (NRAS (SEQ ID NO: 5))
1 | C#Cc1cccc2cc(O)cc(-c3c(F)cc4c(N5CCCC(O)(CO)C5)nc(OC[C@@]56CCCN5C[C@H](F)C6)nc4c3F)c12 (stereo partly drawn) [Ex-48, 1-(7-(8-ethynyl-3-hy-droxynaphthalen-1-yl)-6,8-difluoro-2-(((2R,7aS)-2-fluorotetrahydro-1H-pyrrolizin-7a(5H)-yl)methoxy)quinazolin-4-yl)-3-(hydroxymethyl)piperidin-3-ol] | 5 nM | 13 nM | 376 nM | 7 nM | 180 nM |  | 
2 | C#Cc1c(F)ccc2cccc(-c3c(F)cc4c(N5CCC[C@@](C)(O)C5)nc(OC[C@@]56CCCN5C[C@H](F)C6)nc4c3F)c12 [Ex-47, (3R)-1-(7-(8-ethynyl-7-fluoronaphthalen-1-yl)-6,8-difluoro-2-(((2R,7aS)-2-fluorotetrahydro-1H-pyrrolizin-7a(5H)-yl)methoxy)quinazolin-4-yl)-3-methylpiperidin-3-ol] | 390 nM | 239 nM | 2070 nM | 173 nM | 979 nM |  | 
3 | Cc1cc2[nH]ncc2c(-c2c(F)cc3c(N4CCOC[C@@](C)(O)C4)nc(OC[C@@]45CCCN4C[C@H](F)C5)nc3c2F)c1C(F)(F)F [Ex-41, (6S)-4-(6,8-difluoro-2-(((2R,7aS)-2-fluorotetrahydro-1H-pyrrolizin-7a(5H)-yl)methoxy)-7-(6-methyl-5-(trifluoromethyl)-1H-indazol-4-yl)quinazolin-4-yl)-6-methyl-1,4-oxazepan-6-ol] | 60 nM | 33 nM | 285 nM | 48 nM | 203 nM | > 11.1 µM | > 11.1 µM
4 | C#Cc1c(F)ccc2cccc(-c3c(F)cc4c(N5CCC[C@@](C)(O)C5)nc(OC[C@@]56CCCN5[C@H](COC(=O)N(C)C)CC6)nc4c3F)c12 [Ex-45, ((3S,7aS)-7a-(((7-(8-ethynyl-7-fluoronaphthalen-1-yl)-6,8-difluoro-4-((R)-3-hydroxy-3-methylpiperidin-1-yl)quinazolin-2-yl)oxy)methyl)hexahydro-1H-pyrrolizin-3-yl)methyl dimethylcarbamate] | 12 nM | 23 nM | 379 nM | 14 nM | 331 nM |  | 
5 | C#Cc1cccc2cc(O)cc(-c3c(F)cc4c(N5CCCC(O)(C(F)F)C5)nc(OC[C@@]56CCCN5C[C@H](F)C6)nc4c3F)c12 (stereo partly drawn) [Ex-43, 3-(difluoromethyl)-1-(7-(8-ethynyl-3-hydroxynaphthalen-1-yl)-6,8-difluoro-2-(((2R,7aS)-2-fluorotetrahydro-1H-pyrrolizin-7a(5H)-yl)methoxy)quinazolin-4-yl)piperidin-3-ol] | 10 nM | 13 nM | 215 nM | 8 nM | 58 nM |  | 
6 | CN(C)CC1(COc2nc(N3CCCC(C)(O)C3)c3cc(F)c(-c4cc(O)ccc4OC(F)(F)F)c(F)c3n2)CC1 (stereo not drawn) [Ex-9, 1-(2-((1-((dimethylamino)methyl)cyclopropyl)methoxy)-6,8-difluoro-7-(5-hydroxy-2-(trifluoromethoxy)phenyl)quinazolin-4-yl)-3-methylpiperidin-3-ol] | 381 nM | 315 nM | 1880 nM | 221 nM | 4210 nM |  | 
7 | Cc1cc(N)nc(-c2c(Cl)cc3c(N4CCCC(C)(O)C4)nc(OC[C@@]45CCCN4C[C@H](F)C5)nc3c2F)c1C(F)(F)F (single isomer, unassigned) [Ex-26] | 1550 nM | 2010 nM | 3920 nM | 711 nM | 7730 nM |  | 
8 | CC1(O)CCCCN(c2nc(OC[C@@]34CCCN3C[C@H](F)C4)nc3c(F)c(-c4cc(O)cc5cccc(Cl)c45)c(F)cc23)C1 (single isomer, unassigned) [Ex-36] | 300 nM | 398 nM | 1860 nM | 142 nM | 3580 nM |  | 

Second part, the compound after the results:

Row | IC50 [1] | IC50 [2] | IC50 [3] | IC50 (G13D) | IC50 [4] | IC50 (HRAS (SEQ ID NO: 4)) | IC50 (NRAS (SEQ ID NO: 5)) | Structure (SMILES)
9 | 237 nM | 283 nM |  | 341 nM |  | > 9.95 µM | > 9.95 µM | CN(C)CC1(COc2nc(N3CCCC(O)CC3)c3cc(Cl)c(-c4ccc(F)c5sc(N)nc45)c(F)c3n2)CC1 (stereo not drawn) [Ex-17, 1-(7-(2-amino-7-fluorobenzo[d]thiazol-4-yl)-6-chloro-2-((1-((dimethylamino)methyl)cyclopropyl)methoxy)-8-fluoroquinazolin-4-yl)azepan-4-ol]
10 | 40 nM | 59 nM | 261 nM | 16 nM | 118 nM |  |  | CC1(O)CN(c2nc(OC[C@@]34CCCN3C[C@H](F)C4)nc3c(F)c(-c4cc(O)cc5cccc(Cl)c45)c(F)cc23)CCC1F (stereo partly drawn) [Ex-32, 1-(7-(8-chloro-3-hydroxynaphthalen-1-yl)-6,8-difluoro-2-(((2R,7aS)-2-fluorotetrahydro-1H-pyrrolizin-7a(5H)-yl)methoxy)quinazolin-4-yl)-4-fluoro-3-methylpiperidin-3-ol]
11 |  |  |  |  |  | > 9.95 µM | > 9.95 µM | CN(C)CC1(COc2nc(N3CCCC(C)(O)C3)c3cc(F)c(-c4cc(O)cc5ccccc45)c(F)c3n2)CC1 (stereo not drawn) [Ex-8, 1-(2-((1-((dimethylamino)methyl)cyclopropyl)methoxy)-6,8-difluoro-7-(3-hydroxynaphthalen-1-yl)quinazolin-4-yl)-3-methylpiperidin-3-ol]
12 | 1 nM | 1 nM | 65 nM | 2 nM | 14 nM |  |  | C#Cc1cccc2cc(O)cc(-c3ncc4c(N5CCC[C@@](C)(O)C5)nc(OC[C@@]56CCCN5C[C@H](F)C6)nc4c3F)c12 [Ex-23, (R)-1-(7-(8-ethynyl-3-hydroxynaphthalen-1-yl)-8-fluoro-2-(((2R,7aS)-2-fluorotetrahydro-1H-pyrrolizin-7a(5H)-yl)methoxy)pyrido[4,3-d]pyrimidin-4-yl)-3-methylpiperidin-3-ol]
13 |  |  | 70 nM |  | 41 nM | > 9.95 µM | > 9.95 µM | C#Cc1cccc2cc(O)cc(-c3c(Cl)cc4c(N5CCC[C@@](C)(O)C5)nc(OC[C@@]56CCCN5C[C@H](F)C6)nc4c3F)c12 [Ex-1, (3R)-1-(6-chloro-7-(8-ethynyl-3-hydroxvnaphthalen-1-yl)-8-fluoro-2-(((2R,7aS)-2-fluorotetrahydro-1H-pyrrolizin-7a(5H)-yl)methoxy)quinazolin-4-yl)-3-methylpiperidin-3-ol]
14 | 2 nM | 1 nM | 1160 nM | 1 nM | 305 nM |  |  | C#Cc1cccc2cc(O)cc(-c3ncc4c(N5CCC[C@@](C)(O)C5)nc(OCC56CCCN5CCC6)nc4c3F)c12 [Ex-22, (R)-1-(7-(8-ethyny1-3-hydroxynaphthalen-1-yl)-8-fluoro-2-((tetrahydro-1H-pyrrolizin-7a(5H)-yl)methoxy)pyrido[4,3-d]pyrimidin-4-yl)-3-methylpiperidin-3-ol]
15 | 17 nM | 15 nM | 900 nM | 13 nM | > 30000 nM |  |  | CC1(O)CCCN(c2nc(OC[C@@]34CCCN3C[C@H](F)C4)nc3c(F)c(-c4cc(O)cc5cccc(Cl)c45)c(F)cc23)C1 (stereo partly drawn) [Ex-29, 1-(7-(8-chloro-3-hydroxynaphthalen-1-yl)-6,8-difluoro-2-(((2R,7aS)-2-fluorotetrahydro-1H-pyrrolizin-7a(5H)-yl)methoxy)quinazolin-4-yl)-3-methylpiperidin-3-ol]
16 | 470 nM | 173 nM | 1330 nM | 931 nM | 981 nM |  |  | Cc1cc2[nH]ncc2c(-c2c(F)cc3c(N4CCC[C@H](O)CC4)nc(OC[C@@]45CCCN4C[C@H](F)C5)nc3c2F)c1C(F)(F)F [Ex-40, (4S)-1-(6,8-difluoro-2-(((2R,7aS)-2-fluorotetrahydro-1H-pyrrolizin-7a(5H)-yl)methoxy)-7-(6-methyl-5-(trifluoromethyl)-1H-indazol-4-yl)quinazolin-4-yl)azepan-4-ol]
17 | 598 nM | 857 nM | 6860 nM | 777 nM | 2170 nM |  |  | Oc1cc(-c2c(F)cc3c(N4CCCC(O)(C(F)(F)F)C4)nc(OC[C@@]45CCCN4C[C@H](F)C5)nc3c2F)c2c(Cl)cccc2c1 (single isomer, unassigned) [Ex-38]
18 | 589 nM | 285 nM | 6300 nM | 441 nM | 3620 nM |  |  | Oc1cc(-c2c(F)cc3c(N4CCCCC(O)C4)nc(OC[C@@]45CCCN4C[C@H](F)C5)nc3c2F)c2c(Cl)cccc2c1 (stereo partly drawn) [Ex-34, 1-(7-(8-chloro-3-hydroxynaphthalen-1-yl)-6,8-difluoro-2-(((2R,7aS)-2-fluorotetrahydro-1H-pyrrolizin-7a(5H)-yl)methoxy)quinazolin-4-yl)azepan-3-ol]
19 | 358 nM | 984 nM | 1730 nM | 189 nM | 468 nM |  |  | CC1(O)CN(c2nc(OC[C@@]34CCCN3C[C@H](F)C4)nc3c(F)c(-c4cc(O)cc5cccc(Cl)c45)c(F)cc23)CCC1(F)F (stereo partly drawn) [Ex-31, 1-(7-(8-chloro-3-hydroxynaphthalen-1-yl)-6,8-difluoro-2-(((2R,7aS)-2-fluorotetrahydro-1H-pyrrolizin-7a(5H)-yl)methoxy)quinazolin-4-yl)-4,4-difluoro-3-methylpiperidin-3-ol]
